Experimental findings from patent US20070243264A1, “Thickened Dilute Hypochlorite” (priority 2006, published 2007) are described below.

Read-outs that look alike come from different tables or passages of the source.

The nature of series [1]: Gel formation of hypochlorite thickened with Laponite with added buffers. Conditions: 200 ppm hypochlorite thickened with Laponite; for gel formation: acid added, amount not stated.
A short description of series [2]: Effect of thickeners on stability of dilute hypochlorite. In kind it is physicochemical. On the procedure:
The amount of available halogen oxidant in the composition is determined by placing samples of the composition into about 50 milliliters of distilled water, followed by addition of about 10 milliliters of a 10 weight/weight percent solution of potassium iodide and addition of about 10 milliliters of a 10 volume percent solution of sulfuric acid, the resulting mixture being well stirred. The resulting yellow to brown solution, whose color is the result of oxidation of free iodine ion (I^−) to molecular iodine (I2), was then volumetrically titrated to an essentially colorless endpoint by addition of standardized 0.1 Molar sodium thiosulfate (Na2S2O3) titrant. Calculation then expresses the result as percent of available molecular chlorine (Cl2), that is to say assigning two equivalents per mole of titrated hypohalite oxidant. Stability results are then expressed by repeated assays over time using identically prepared samples resulting from the same composition, normalized to 100 percent representative of the starting available chlorine measured initially.

Take `OB(O)O` [Boric acid]: the gel result is on record as “Yes” in series [1] (buffer Wt. % 0.21, pH 8.5) and “Yes” in series [1] (buffer Wt. % 0.41, pH 8.4). Regarding `CCCCCCCCCCCCOS(=O)(=O)[O-].[Na+]` [sodium lauryl sulfate], the “stability of dilute hypochlorite with surfactant, compared with Vangel ES” value (“stability … compared with Vangel ES” for short) in series [2] (comparison with thickeners of Table 4) was “less stable than Vangel ES®”. Consider `CC(=O)O` [acetic acid], for which the gel formation entry in series [1] was “Gels”. As for `O=C(O)CCC(=O)O` [Succinic acid], the gel result in series [1] (buffer Wt. % 0.01, pH 9.2) is given as “Yes”; in series [1] (buffer Wt. % 0.04, pH 8.2) it was “Viscous liquid”. With `CCCCCCCCS(=O)(=O)[O-].[Na+]` [sodium octyl sulfonate], the “stability … compared with Vangel ES” value in series [2] is recorded as “less stable than Vangel ES®”.

Turning to `CCCCCCCCCCCCCCCC[N+](C)(C)C.[Cl-]` [trimethylC16 ammonium chloride], the “stability … compared with Vangel ES” value in series [2] is recorded as “less stable than Vangel ES®”.

In the case of `Cl` [hydrochloric acid], the gel formation result in series [1] was “Gels”. As to sodium alkylbenzenesulfonate, the “stability … compared with Vangel ES” value in series [2] is recorded as “less stable than Vangel ES®”.
